# Laboratory results reported in patent US11866431B2, “Bicyclic compounds” (Vivace Therapeutics, Inc., priority 2018, dated 2024).
# System: 8XTBD luciferase reporter (YAP reporter) in HEK293T cells
# Experiment: YAP Reporter Assay
# Format: cell-based
# Conditions: Homo sapiens, HEK-293T; HEK293T cells stably transfected with 8XTBD luciferase reporter and pRLTK; 24-hr incubation; top concentration 3 μM; read-out: Firefly Luciferase IC50
# Description: HEK293T cells stably transfected with 8XTBD luciferase reporter and pRLTK in 384-well plates were treated with the test compounds, starting from 3 μM (final concentration in assay plate), 1:3 dilution, and 10 points in quadruplicates. Post 24-hr incubation with compounds at 37° C. and 5% CO2, cells were lysed and 8XTBD-driven firefly luciferase and control TK-driven renilla luciferase activities were measured using Promega Dual-Luciferase Reporter Assay System.
# Reagents: The reagents used for this study are: DMEM: Invitrogen #11960077, Dual-Glo Luciferase Assay System: Promega-E2980, Puromycin Dihydrochloride: Invitrogen-A1113803, 384-well plate: PerkinElmer-6007480, L-GLUTAMINE: Invitrogen-25030164, Hygromycin B: Invitrogen-10687010, and Penicillin-Streptomycin: Merk-TMS-AB2-C
# Media: The media used for this assay were: Culture Medium: DMEM+1 ug/mL puromycin+200 ug/mL hygromycin (with 10% FBS+1 mM L-glutamine); and Assay Medium: DMEM (with 10% FBS+1 mM L-glutamine+1×P/S).
# Cell Plating: The appropriate media was warmed at 37° C. by water bath: Culture Medium, Assay Medium, 1*D-PBS, 0.05% trypsin-EDTA. The cells were trypsinized after removing all media, then washed with 1*sterile D-PBS and then with 2 ml 0.05% trypsin-EDTA. The cells were then incubated at RT for one minute. Then 10 ml/75 cm2 flask Assay Medium was added to each flask. Using a 10 ml pipette, the cells were then gently resuspended in the media, until the clumps completely disappeared. The cells were then transferred into 50 ml centrifuge tubes and were centrifuged at 800 rpm for 5 mins. The medium was removed and the cells were resuspended with Assay Medium. An aliquot of cells was used to count the cell density (cells/ml). The cell suspension was then diluted with Assay Medium to a concentration of 6×10^4 cells/ml. 50 ul cells suspension was then plated to 384-well plate (PerkinElmer-6007480), 3×10^3 cells/well and the cells were incubated in an incubator at 37° C. 5% CO2.
# Compound Treatment: In the afternoon (incubation of the plate with 3-4 hrs), the test compounds were added by Echo, starting from 3 uM (final concentration in the assay plate), 1:3 dilution, 10 points, quadruplicates. The plate was placed at 37° C. 5% CO2 incubator for 24 hrs.
# Detection: The Dual-Glo Luciferase Reagent was prepared by transferring the contents of one bottle of Dual-Glo Luciferase Buffer to one bottle of Dual-Glo Luciferase Substrate to create the Dual-Glo Luciferase Reagent. Mixing was performed by inversion until the substrate was thoroughly dissolved. After mixing, the reagent was aliquoted into 15 ml tubes. In the afternoon (24 hrs post compound treatment), the DMEM+ medium in the 384 well plates were aspirated by Microplate Washer.
# Measuring firefly luciferase activity: 20 ul Dual-Glo Luciferase Reagent was added to the 384-well plates. The plates were protected from light to prevent interference with the assay. The plates were shaken for 1 min followed centrifuging plates at 1000 rpm for 30 seconds. After waiting at least 10 minutes, the firefly luminescence was measured by Envision.
# Measuring renilla luciferase activity: 20 ul Stop-Glo Reagent was added to the 384-well plates. The plates were shaken for 1 min and then centrifuged at 1000 rpm for 30 seconds. After waiting at least 10 minutes, the renilla luminescence was measured by Envision.
# Compound IC50 and maximum inhibition on the firefly luciferase and renilla luciferase activities were reported separately.
row,Structure (SMILES),IC50 [nM]
1,"COc1cc(CNC(=O)c2ccc3c(-c4ccc(C(F)(F)F)cc4)cccc3c2)ccn1 [Compound 210, N-((2-methoxypyridin-4-yl)methyl)-5-(4-(trifluoromethyl)phenyl)-2-naphthamide]",100 to 1000
2,"C[C@@H](NC(=O)c1ccc2c(-c3ccc(C(F)(F)F)cc3)cccc2c1)C1CN(C)C1 [Compound 153, N-[(1R)-1-(1-methylazetidin-3-yl)ethyl]-5-[4-(trifluoromethyl)phenyl]naphthalene-2-carboxamide]",100 to 1000
3,"O=C(NCc1cccc(F)n1)c1ccc2c(-c3ccc(C(F)(F)F)cc3)cccc2c1 [Compound 190, N-((6-fluoropyridin-2-yl)methyl)-5-(4-(trifluoromethyl)phenyl)-2-naphthamide]",100 to 1000
4,"O=C(O)c1ccc2c(-c3ccc(C(F)(F)F)cc3)cncc2c1 [Compound 336, 4-[4-(trifluoromethyl)phenyl]isoquinoline-7-carboxylic Acid]",100 to 1000
5,"CC(C)NC(=O)c1ccc2c(-c3ccc(C(F)(F)F)cc3)cc(Br)cc2c1 [Compound 32, 7-bromo-N-isopropyl-5-[4-(trifluoromethyl)phenyl]naphthalene-2-carboxamide]",< 100
6,"C[C@@H](CCO)NC(=O)c1ccc2c(-c3ccc(C(F)(F)F)cc3)cccc2c1 [Compound 166, N-[(1S)-3-hydroxy-1-methyl-propyl]-5-[4-(trifluoromethyl)phenyl]naphthalene-2-carboxamide]",< 100
7,"O=C(N[C@H](CO)c1ccccn1)c1ccc2c(-c3ccc(C(F)(F)F)cc3)cccc2c1 [Compound 162, N-[(1S)-2-hydroxy-1-(2-pyridyl)ethyl]-5-[4-(trifluoromethyl)phenyl]naphthalene-2-carboxamide]",1000 to 3000
8,"C[C@@H](NC(=O)c1ccc2c(-c3ccc(C(F)(F)F)cc3)cccc2c1)C1CN(C2CC2)C1 [Compound 320, (R)-N-(1-(1-cyclopropylazetidin-3-yl)ethyl)-5-(4-(trifluoromethyl)phenyl)-2-naphthamide]",100 to 1000
9,"COCC(=O)NCCOCCOCCNC(=O)c1ccc2c(-c3ccc(C(F)(F)F)cc3)cccc2c1 [Compound 76, N-(4-oxo-2,8,11-trioxa-5-azatridecan-13-yl)-5-(4-(trifluoromethyl)phenyl)-2-naphthamide]",100 to 1000
10,"CC(=O)N(C)c1cc(-c2ccc(C(F)(F)F)cc2)c2ccc(C(=O)NC(C)C)cc2c1 [Compound 51, N-isopropyl-7-(N-methylacetamido)-5-(4-(trifluoromethyl)phenyl)-2-naphthamide]",100 to 1000
11,"COc1cc(-c2ccc(C(F)(F)F)cc2)c2ncc(C(=O)N[C@H](C)c3ccccn3)cc2c1 [Compound 106, 6-methoxy-N-[(1R)-1-(2-pyridyl)ethyl]-8-[4-(trifluoromethyl)phenyl]quinoline-3-carboxamide]",100 to 1000
12,"C[C@@H](NC(=O)c1cnc2c(-c3ccc(C(F)(F)F)cc3)cccc2c1)C1CN(C)C1 [Compound 156, N-[(1R)-1-(1-methylazetidin-3-yl)ethyl]-8-[4-(trifluoromethyl)phenyl]quinoline-3-carboxamide]",100 to 1000
13,"CCN1CC([C@H](C)NC(=O)c2ccc3c(-c4ccc(C(F)(F)F)cc4)cccc3c2)C1 [Compound 149, N-[(1S)-1-(1-Ethylazetidin-3-yl)ethyl]-5-[4-(trifluoromethyl)phenyl]naphthalene-2-carboxamide]",100 to 1000
14,"Cn1cc(-c2ccc(C(F)(F)F)cc2)c2ccc(C(=O)O)cc2c1=O [Compound 337, 2-methyl-1-oxo-4-[4-(trifluoromethyl)phenyl]isoquinoline-7-carboxylic Acid]",100 to 1000
15,"NS(=O)(=O)NC(=O)c1ccc2c(-c3ccc(C(F)(F)F)cc3)cccc2c1 [Compound 29, N-sulfamoyl-5-(4-(trifluoromethyl)phenyl)-2-naphthamide]",100 to 1000
16,"C[C@H](NC(=O)c1ccc2c(-c3ccc(C(F)(F)F)cc3)cccc2c1)C1CC1 [Compound 289, (S)—N-(1-cyclopropylethyl)-5-(4-(trifluoromethyl)phenyl)-2-naphthamide]",< 100
17,"CC(C)NC(=O)c1ccc2c(-c3ccc(C(F)(F)F)cc3)cc(=O)n(C)c2c1 [Compound 306, N-Isopropyl-1-methyl-2-oxo-4-(4-(trifluoromethyl)phenyl)-1,2-dihydroquinoline-7-carboxamide]",100 to 1000
18,"C[C@H](NC(=O)c1ccc2c(-c3ccc(C(F)(F)F)cc3)cccc2n1)c1ccccn1 [Compound 244, (S)—N-(1-(Pyridin-2-yl)ethyl)-5-(4-(trifluoromethyl)phenyl)quinoline-2-carboxamide]",< 100
19,"O=C(N[C@H](CO)C1CNC1)c1ccc2c(-c3ccc(C(F)(F)F)cc3)cccc2c1 [Compound 130, N-[(1S)-1-(azetidin-3-yl)-2-hydroxy-ethyl]-5-[4-(trifluoromethyl)phenyl]naphthalene-2-carboxamide]",1000 to 3000
20,"C[C@@H](NC(=O)c1ccc2c(-c3ccc(C(F)(F)F)cc3)cccc2c1)c1cccnc1N [Compound 218, (R)—N-[1-(2-amino-3-pyridyl)ethyl]-5-[4-(trifluoromethyl)phenyl]naphthalene-2-carboxamide]",< 100
21,"CC(C)NC(=O)c1ccc2c(-c3ccc(C(F)(F)F)cc3)cccc2c1 [Compound 1, N-isopropyl-5-(4-(trifluoromethyl)phenyl)-2-naphthamide]",< 100
22,"O=C(N[C@H](CCO)c1ccccn1)c1ccc2c(-c3ccc(C(F)(F)F)cc3)cccc2c1 [Compound 165, (R)—N-(3-hydroxy-1-(pyridin-2-yl)propyl)-5-(4-(trifluoromethyl)phenyl)-2-naphthamide]",1000 to 3000
23,"C[C@H](NC(=O)c1ccc2c(-c3ccc(C(F)(F)F)cc3)cccc2c1)c1cn(C)cn1 [Compound 195, (S)—N-(1-(1-methyl-1H-imidazol-4-yl)ethyl)-5-(4-(trifluoromethyl)phenyl)-2-naphthamide]",< 100
24,"CCN1CC([C@@H](C)NC(=O)c2ccc3c(-c4ccc(C(F)(F)F)cc4)cccc3c2)C1 [Compound 148, N-[(1R)-1-(1-Ethylazetidin-3-yl)ethyl]-5-[4-(trifluoromethyl)phenyl]naphthalene-2-carboxamide]",100 to 1000
25,"C[C@@H](NC(=O)c1cnc2c(-c3ccc(C(F)(F)F)cc3)cccc2c1)C1CNC1 [Compound 158, N-[(1R)-1-(Azetidin-3-yl)ethyl]-8-[4-(trifluoromethyl)phenyl]quinoline-3-carboxamide]",100 to 1000
26,"C[C@H](NC(=O)c1ccc2c(-c3ccc(C(F)(F)F)cc3)cccc2c1)C(N)=O [Compound 259, (S)—N-(1-amino-1-oxopropan-2-yl)-5-(4-(trifluoromethyl)phenyl)-2-naphthamide]",100 to 1000
27,"N#C/C=C/CCNC(=O)c1ccc2c(-c3ccc(C(F)(F)F)cc3)cccc2c1 [Compound 217, N-[(E)-4-cyanobut-3-enyl]-5-[4-(trifluoromethyl)phenyl]naphthalene-2-carboxamide]",< 100
28,"C[C@@H](CN1CCCC1)NC(=O)c1ccc2c(-c3ccc(C(F)(F)F)cc3)cccc2c1 [Compound 66, (S)—N-(1-(pyrrolidin-1-yl)propan-2-yl)-5-(4-(trifluoromethyl)phenyl)-2-naphthamide]",100 to 1000
29,"C[C@@H](NC(=O)c1ccc2c(-c3ccc(C(F)(F)F)cc3)cccc2c1)C1CN(CCF)C1 [Compound 144, (R)—N-(1-(1-(2-fluoroethyl)azetidin-3-yl)ethyl)-5-(4-(trifluoromethyl)phenyl)-2-naphthamide]",100 to 1000
30,"C#C[C@H](C)NC(=O)c1ccc2c(-c3ccc(C(F)(F)F)cc3)cccc2c1 [Compound 274, (S)—N-(but-3-yn-2-yl)-5-(4-(trifluoromethyl)phenyl)-2-naphthamide]",< 100
